Assay results taken from patent US20250091994A1, “RAS/RAF BINDING INHIBITOR COMPOUND” (NATIONAL UNIVERSITY CORPORATION KOBE UNIVERSITY, priority 2021, published 2025).

How the values were obtained:
[1] = target: GTPγS-bound human HRasG12V / human c-Raf-1 Ras binding domain (RBD) (Homo sapiens (Human), UniProt P01112, G12V); experiment: Ras-Raf binding inhibition ELISA; details: for IC50: anti-HRas antibody C-20, read-out: ELISA IC50 (μM): 1st Ab_C-20
Procedure, shortened: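 GST-c-Raf-1 RBD (aa 50-131) immobilized on glutathione plates, then GTPγS-loaded full-length HRasG12V added with compound (final 10% DMSO), 1 h at 30 °C, pH 7.4 Tris buffer. Bound Ras detected by anti-HRas antibody (C-20 or 259) and HRP secondary, TMB read at OD450; IC50 from inhibition.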

[2] = tested on: promyelocytic leukemia cells HL60 (N-RasQ61L); experiment: Cell growth inhibition, suspension cells HL60; type: cell-based; details: Homo sapiens, HL-60, 72 hours; for inhibition at 3.2 µM: read-out: HL-60 (NRasQ61L) % inhibition at 3.2 μM (****); for inhibition at 1 µM: read-out: HL-60 (NRasQ61L) % inhibition at 1 μM; for inhibition at 10 µM: read-out: HL-60 (NRasQ61L) % inhibition at 10 μM (***)
Procedure, shortened: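 Suspension cells, 2 to 4×10^4 per well, cultured with compound in medium with 0.5% FBS (1% DMSO final) for 72 h at 37° C, 5% CO2. Viable cells counted with Cell Counting Reagent; inhibition calculated relative to controls.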

[3] = tested on: large bowel cancer cell SW620 (K-RasG12V); experiment: Cell growth inhibition, adherent cells SW620; type: cell-based; details: Homo sapiens, SW-620, 72 hours; for inhibition at 3.2 µM: read-out: SW620 (KRasG12V) % inhibition at 3.2 μM (***)
Procedure, shortened: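 Adherent cells, 1 to 2×10^4 per well, grown overnight in 10% FBS, then exposed to compound in low-serum medium […] for 72 h at 37° C. Viable cells counted with Cell Counting Reagent; inhibition calculated relative to controls.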

[4] = tested on: acute lymphoblastic leukemia cells CCRF-CEM (K-RasG12D); experiment: Cell growth inhibition, suspension cells CCRF-CEM; type: cell-based; details: Homo sapiens, 72 hours; for inhibition at 3.2 µM: read-out: CCRF-CEM (KRasG12D) % inhibition at 3.2 μM (***); for inhibition at 1 µM: read-out: CCRF-CEM (KRasG12D) % inhibition at 1 μM
Protocol: (§1) The cell growth inhibitory activity of the compound of the present invention on human culture cells having active-type mutation in Ras was evaluated by the below-mentioned method using suspension cancer cells {acute lymphoblastic leukemia cells CCRF-CEM (K-RasG12D), promyelocytic leukemia cells HL60 (N-RasQ61L), acute lymphoblastic leukemia cells MOLT4 (N-RasG12C), and small cell lung cancer cells SHP77 (K-RasG12V)} and adherent cancer cells {large bowel cancer cells SW480 (K-RasG12V) and large bowel cancer cell SW620 (K-RasG12V)}.
(§2) (Case of suspension cells) The cells suspended in a medium containing 0.5% (v/v) fetal bovine serum (FBS) and each compound solution (final DMSO concentration: 1%) were seeded on a 96-well plate (2 to 4×10^4 cells/well), and the resulting mixture was then cultured at 37° C. in the presence of 5% CO2 for 72 hours.
(§3) Thereafter, the number of viable cells was measured using Cell Counting Reagent (Nacalai Tesque) in accordance with the manufacturer's instructions. Inhibition by the test compound was determined according to the following equation: […]

[5] = tested on: acute lymphoblastic leukemia cells MOLT4 (N-RasG12C); experiment: Cell growth inhibition, suspension cells MOLT4; type: cell-based; details: Homo sapiens, MOLT-4, 72 hours; for inhibition at 3.2 µM: read-out: MOLT-4 (NRasG12C) % inhibition at 3.2 μM (***); for inhibition at 10 µM: read-out: MOLT-4 (NRasG12C) % inhibition at 10 μM (**)
Protocol: as §1, §2, §3

[6] = tested on: phosphorylated ERK (pERK) in HL60 cells; experiment: Ras-Raf signaling inhibition at culture cell level, pERK; type: cell-based; details: Homo sapiens, HL-60; HL60 (N-RasQ61L), 1 μM test compound, 3 hours
Protocol: (§4) The Ras-Raf signaling inhibitory activity of the compound of the present invention at a culture cell level was evaluated by the following method.
(§5) The HL60 cells described in Test Example 2 suspended in a medium containing 0.5% (v/v) FBS with each compound solution (final DMSO concentration: 1%), were seeded on a 12-well plate (2 to 4×10^5 cells/well), and the resulting mixture was then cultured at 37° C. in the presence of 5% CO2 for 3 hours.
(§6) After completion of the cell culture, proteins were extracted from the cells, using RIPA Buffer (Nacalai Tesque) containing a mixture of protease inhibitors and phosphatase inhibitors. An equivalent amount of protein was separated by standard SDS-PAGE and was then transferred onto a PVDF membrane. In order to detect the activation (phosphorylation) of MEK and ERK, downstream molecules of the Ras-Raf signaling pathway, the membrane was probed with 1000-fold diluted primary antibodies {phosphorylated MEK (pMEK: #9121), phosphorylated ERK (pERK: #9101), total MEK (tMEK: #9122), and total ERK (tERK: 9102); all from Cell signaling}, and then with a 1000-fold diluted horseradish peroxidase-labeled secondary antibody against rabbit immunoglobulin G. The immunoreactive signals were colored with EzWestLumi One (ATTO), and were then detected by Fusion FX (Vilber). Signal intensity was quantified by pixel counting. Inhibition by the test compound was determined according to the following equation: […]

[7] = tested on: phosphorylated MEK (pMEK) in HL60 cells; experiment: Ras-Raf signaling inhibition at culture cell level, pMEK; type: cell-based; details: Homo sapiens, HL-60; HL60 (N-RasQ61L), 1 μM test compound, 3 hours
Protocol: as §4, §5, §6

[8] = tested on: small cell lung cancer cells SHP77 (K-RasG12V); experiment: Cell growth inhibition, suspension cells SHP77; type: cell-based; details: Homo sapiens, 3.2 μM (**), 72 hours, read-out: SHP77 (KRasG12V) % inhibition at 3.2 μM (**)
Protocol: as §1, §2, §3

GTPγS-bound human HRasG12V / human c-Raf-1 Ras binding domain (RBD), sequence (P01112 whole entry G12V, the tested form may be a part): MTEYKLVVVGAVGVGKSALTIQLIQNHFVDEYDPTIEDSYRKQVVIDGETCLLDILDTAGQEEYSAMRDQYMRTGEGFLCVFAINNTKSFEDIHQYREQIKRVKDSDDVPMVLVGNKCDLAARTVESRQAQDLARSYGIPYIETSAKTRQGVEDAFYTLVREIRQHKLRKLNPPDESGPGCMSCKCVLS

CC(=O)N1/C(=C\c2cc(CNC3CCOCC3)c3ccccc3n2)C(=O)c2ccccc21 [Example 208, (Z)-1-acetyl-2-((4-(((tetrahydro-2H-pyran-4-yl)-amino)methyl)-quinolin-2-yl)-methylene)indolin-3-one]
inhibition at 1 µM [1]: 46.7%
IC50 [1]: 1.3 µM
inhibition at 3.2 µM [2]: 95.1%
inhibition at 3.2 µM [3]: 81.1%
inhibition at 3.2 µM [4]: 97%
inhibition at 3.2 µM [5]: 96.2%

COc1cc(/C=C2/C(=O)c3ccccc3N2C(C)=O)ccc1OS(C)(=O)=O [Example 21, 4-((1-acetyl-3-oxoindolin-2-ylidene)methyl)-2-methoxyphenyl methanesulfonate]
inhibition at 1 µM [2]: 43%
inhibition at 1 µM [4]: 97%
inhibition at 3.3 µM ([5]; 3.3 μM (*), read-out: MOLT-4 (NRasG12C) % inhibition at 3.3 μM (*)): 100%

CCCCOc1cc(/C=C2/C(=O)c3ccccc3N2C(C)=O)nc2ccc(C(=O)N3CCOCC3)cc12 [Example 84, (Z)-1-acetyl-2-((4-butoxy-6-(morpholine-4-carbonyl)quinolin-2-yl)methylene)-indolin-3-one]
inhibition at 1 µM [6]: 63%
inhibition at 1 µM [7]: 58%
inhibition at 1 µM [2]: 96%
inhibition at 1 µM ([3]; 1 μM, read-out: SW620 (KRasG12V) % inhibition at 1 μM): 90%

CC(=O)N1CCc2cc(-c3cc(/C=C4/C(=O)c5ccccc5N4C(C)=O)nc4ccc(CNC5CCOCC5)cc34)ccc2C1 [Example 209, (Z)-1-acetyl-2-((4-(2-acetyl-1,2,3,4-tetrahydro-isoquinolin-6-yl)-6-(((tetrahydro-2H-pyran-4-yl)-amino)methyl)-quinolin-2-yl)-methylene)indolin-3-one]
inhibition at 1 µM [1]: 71.2%
inhibition at 3.2 µM [2]: 96.7%
inhibition at 3.2 µM [3]: 94.4%
inhibition at 3.2 µM [4]: 97.8%
inhibition at 3.2 µM [5]: 96.7%

COc1cc(/C=C2/C(=O)c3ccccc3N2C(C)=O)ccc1OCS(C)(=O)=O [Example 24, 1-acetyl-2-(3-methoxy-4-((methylsulfon-yl)methoxy)-benzylidene)-indolin-3-one]
inhibition at 1 µM [4]: 88%
inhibition at 1 µM ([5]; 1 μM, read-out: MOLT-4 (NRasG12C) % inhibition at 1 μM): 54%

CC(=O)N1/C(=C\c2cc(-c3cccc(-c4cnn(C)c4)c3)c3cc(CNC4CCOCC4)ccc3n2)C(=O)c2ccccc21 [Example 210, (Z)-1-acetyl-2-((4-(3-(1-methyl-1H-pyrazol-4-yl)-phenyl)-6-(((tetra-hydro-2H-pyran-4-yl)amino)meth-yl)quinolin-2-yl)-methylene)indolin-3-one]
inhibition at 1 µM [1]: 66.9%
IC50 [1]: 0.6 µM
inhibition at 3.2 µM [2]: 97.3%
inhibition at 3.2 µM [3]: 78%
inhibition at 3.2 µM [4]: 97.5%
inhibition at 3.2 µM [5]: 96.2%

CC(=O)N1C(=Cc2ccc(OCC(=O)N3CCOCC3)c(F)c2)C(=O)c2ccccc21 (racemic) [Example 16, 1-acetyl-2-(3-fluoro-4-(2-morpholino-2-oxoethoxy)-benzylidene)-indolin-3-one]
IC50 [1]: 7.6 µM
inhibition at 1 µM [4]: 56%
inhibition at 10 µM [5]: 100%

CC(=O)N1/C(=C\c2cc(CN3CCOCC3)c3ccccc3n2)C(=O)c2ccccc21 [Example 181, (Z)-1-acetyl-2-((4-(morpholinometh-yl)quinolin-2-yl)-methylene)indolin-3-one]
IC50 [1]: 2.4 µM
inhibition at 3.2 µM [2]: 96.7%
inhibition at 3.2 µM [3]: 74.3%
inhibition at 3.2 µM [4]: 98.2%
inhibition at 3.2 µM [5]: 96.3%

CC(=O)N1C(=Cc2cc(F)c(OCC(=O)N3CCOCC3)c(F)c2)C(=O)c2ccccc21 (racemic) [Example 19, 1-acetyl-2-(3,5-difluoro-4-(2-morpholino-2-oxoethoxy)-benzylidene)-indolin-3-one]
IC50 [1]: 5.8 µM
inhibition at 1 µM [4]: 83%
inhibition at 10 µM [5]: 100%

CC(=O)N1/C(=C/c2nc3ccc(C(=O)N4CCOCC4)cc3s2)C(=O)c2ccccc21 [Example 58, (E)-1-acetyl-2-((6-(morpholine-4-carbonyl)benzo [d]thiazol-2-yl)-methylene)indolin-3-one]
inhibition at 1 µM [6]: 100%
inhibition at 1 µM [7]: 72%
inhibition at 10 µM [2]: 99%
inhibition at 1 µM [4]: 45%

CCOc1cc(/C=C2/C(=O)c3ccccc3N2C(C)=O)ccc1OCC(N)=O [Example 13, 2-(4-((1-acetyl-3-oxoindolin-2-ylidene)methyl)-2-ethoxyphenoxy)-acetamide]
inhibition at 1 µM [4]: 33%
inhibition at 10 µM [5]: 100%

COCCOc1ccc(/C=C2/C(=O)c3ccccc3N2C(C)=O)cc1OC [Example 11, 1-acetyl-2-(3-methoxy-4-(2-methoxyethoxy)-benzylidene)-indolin-3-one]
inhibition at 10 µM [1]: 54%
inhibition at 1 µM [4]: 55%
inhibition at 10 µM [5]: 100%

CC(=O)N1/C(=C/c2nc3cc(C(=O)N4CCOCC4)ccc3s2)C(=O)c2ccccc21 [Example 48, (E)-1-acetyl-2-((5-(morpholine-4-carbonyl)benzo [d]thiazol-2-yl)-methylene)indolin-3-one]
inhibition at 1 µM [6]: 96%
inhibition at 1 µM [7]: 81%
inhibition at 10 µM [2]: 100%
inhibition at 1 µM [4]: 69%

CC(=O)N1/C(=C\c2ccc3c(-c4cccc5ccccc45)c(C(=O)N4CCOCC4)ccc3n2)C(=O)c2ccccc21 [Example 195, (Z)-1-acetyl-2-((6-(morpholine-4-carbonyl)-5-(naphthalen-1-yl)-quinolin-2-yl)-methylene)indolin-3-one]
inhibition at 1 µM [1]: 55.7%
IC50 [1]: 0.9 µM
inhibition at 3.2 µM [3]: 95.4%
inhibition at 3.2 µM [8]: 96.4%
